From ChEMBL document CHEMBL3045770, “Design and synthesis of some thieno[2,3-c]pyridazine derivatives of expected anticancer activity” (2013)

Tests used:
Format in all cases: functional
[1] = system: OVCAR-8; assay: Cytotoxicity against Homo sapiens (human) OVCAR8 assessed as cell growth at 10 uM after 48 hr by SRB assay relative to control; conditions: OVCAR-8, 48 h, read-out: Activity
[2] = system: HCT-116; assay: Cytotoxicity against Homo sapiens (human) HCT116 assessed as cell growth at 10 uM after 48 hr by SRB assay relative to control; conditions: HCT-116, 48 h, read-out: Activity
[3] = system: MCF7; assay: Cytotoxicity against Homo sapiens (human) MCF7 assessed as cell growth at 10 uM after 48 hr by SRB assay relative to control; conditions: MCF7, 48 h, read-out: Activity
[4] = system: 786-0; assay: Cytotoxicity against Homo sapiens (human) 786-0 assessed as cell growth at 10 uM after 48 hr by SRB assay relative to control; conditions: 786-0, 48 h, read-out: Activity
[5] = system: T47D; assay: Cytotoxicity against Homo sapiens (human) T47D assessed as cell growth at 10 uM after 48 hr by SRB assay relative to control; conditions: read-out: Activity
[6] = system: SNB-19; assay: Cytotoxicity against Homo sapiens (human) SNB19 assessed as cell growth at 10 uM after 48 hr by SRB assay relative to control; conditions: SNB-19, 48 h, read-out: Activity
[7] = system: SNB-75; assay: Cytotoxicity against Homo sapiens (human) SNB75 assessed as cell growth at 10 uM after 48 hr by SRB assay relative to control; conditions: SNB-75, 48 h, read-out: Activity
[8] = Cytotoxicity against Homo sapiens (human) NCI-ADR-RES assessed as cell growth at 10 uM after 48 hr by SRB assay relative to control; conditions: read-out: Activity
[9] = system: NCI-H460; assay: Cytotoxicity against Homo sapiens (human) NCI-H460 assessed as cell growth at 10 uM after 48 hr by SRB assay relative to control; conditions: NCI-H460, 48 h, read-out: Activity
[10] = system: CAKI-1; assay: Cytotoxicity against Homo sapiens (human) Caki1 assessed as cell growth at 10 uM after 48 hr by SRB assay relative to control; conditions: CAKI-1, 48 h, read-out: Activity
[11] = system: SK-MEL-5; assay: Cytotoxicity against Homo sapiens (human) SK-MEL-5 assessed as cell growth at 10 uM after 48 hr by SRB assay relative to control; conditions: SK-MEL-5, 48 h, read-out: Activity
[12] = system: SK-MEL-28; assay: Cytotoxicity against Homo sapiens (human) SK-MEL-28 assessed as cell growth at 10 uM after 48 hr by SRB assay relative to control; conditions: SK-MEL-28, 48 h, read-out: Activity
[13] = system: SR; assay: Cytotoxicity against Homo sapiens (human) SR assessed as cell growth at 10 uM after 48 hr by SRB assay relative to control; conditions: read-out: Activity
[14] = system: TK-10; assay: Cytotoxicity against Homo sapiens (human) TK10 assessed as cell growth at 10 uM after 48 hr by SRB assay relative to control; conditions: TK-10, 48 h, read-out: Activity
[15] = system: SN12C; assay: Cytotoxicity against Homo sapiens (human) SN12C assessed as cell growth at 10 uM after 48 hr by SRB assay relative to control; conditions: read-out: Activity
[16] = system: HCC 2998; assay: Cytotoxicity against Homo sapiens (human) HCC2998 assessed as cell growth at 10 uM after 48 hr by SRB assay relative to control; conditions: HCC 2998, 48 h, read-out: Activity
[17] = system: LOX IMVI; assay: Cytotoxicity against Homo sapiens (human) LOXIMVI assessed as cell growth at 10 uM after 48 hr by SRB assay relative to control; conditions: read-out: Activity
[18] = system: UACC-62; assay: Cytotoxicity against Homo sapiens (human) UACC62 assessed as cell growth at 10 uM after 48 hr by SRB assay relative to control; conditions: UACC-62, 48 h, read-out: Activity
[19] = system: BT-549; assay: Cytotoxicity against Homo sapiens (human) BT549 assessed as cell growth at 10 uM after 48 hr by SRB assay relative to control; conditions: BT-549, 48 h, read-out: Activity
[20] = system: NCI-H226; assay: Cytotoxicity against Homo sapiens (human) NCI-H226 assessed as cell growth at 10 uM after 48 hr by SRB assay relative to control; conditions: NCI-H226, 48 h, read-out: Activity
[21] = system: OVCAR-5; assay: Cytotoxicity against Homo sapiens (human) OVCAR5 assessed as cell growth at 10 uM after 48 hr by SRB assay relative to control; conditions: OVCAR-5, 48 h, read-out: Activity
[22] = system: COLO 205; assay: Cytotoxicity against Homo sapiens (human) COLO205 assessed as cell growth at 10 uM after 48 hr by SRB assay relative to control; conditions: COLO 205, 48 h, read-out: Activity
[23] = system: M14; assay: Cytotoxicity against Homo sapiens (human) M14 assessed as cell growth at 10 uM after 48 hr by SRB assay relative to control; conditions: M14, 48 h, read-out: Activity
[24] = system: RPMI-8226; assay: Cytotoxicity against Homo sapiens (human) RPMI8226 assessed as cell growth at 10 uM after 48 hr by SRB assay relative to control; conditions: RPMI-8226, 48 h, read-out: Activity
[25] = system: A549; assay: Cytotoxicity against Homo sapiens (human) A549 assessed as cell growth at 10 uM after 48 hr by SRB assay relative to control; conditions: A549, 48 h, read-out: Activity
[26] = system: SW-620; assay: Cytotoxicity against Homo sapiens (human) SW620 assessed as cell growth at 10 uM after 48 hr by SRB assay relative to control; conditions: SW-620, 48 h, read-out: Activity
[27] = system: MDA-MB-435; assay: Cytotoxicity against Homo sapiens (human) MDA-MB-435 assessed as cell growth at 10 uM after 48 hr by SRB assay relative to control; conditions: MDA-MB-435, 48 h, read-out: Activity
[28] = system: CCRF-CEM; assay: Cytotoxicity against Homo sapiens (human) CCRF-CEM assessed as cell growth at 10 uM after 48 hr by SRB assay relative to control; conditions: read-out: Activity
[29] = system: MDA-MB-468; assay: Cytotoxicity against Homo sapiens (human) MDA-MB-468 assessed as cell growth at 10 uM after 48 hr by SRB assay relative to control; conditions: MDA-MB-468, 48 h, read-out: Activity
[30] = system: HL-60(TB); assay: Cytotoxicity against Homo sapiens (human) HL-60(TB) assessed as cell growth at 10 uM after 48 hr by SRB assay relative to control; conditions: HL-60, 48 h, read-out: Activity
[31] = system: DU-145; assay: Cytotoxicity against Homo sapiens (human) DU145 assessed as cell growth at 10 uM after 48 hr by SRB assay relative to control; conditions: DU-145, 48 h, read-out: Activity
[32] = system: RXF 393; assay: Cytotoxicity against Homo sapiens (human) RXF393 assessed as cell growth at 10 uM after 48 hr by SRB assay relative to control; conditions: RXF 393, 48 h, read-out: Activity
[33] = system: EKVX; assay: Cytotoxicity against Homo sapiens (human) EKVX assessed as cell growth at 10 uM after 48 hr by SRB assay relative to control; conditions: read-out: Activity

Compound | growth at 10 µM [1] [%] | growth at 10 µM [2] [%] | growth at 10 µM [3] [%] | growth at 10 µM [4] [%] | growth at 10 µM [5] [%] | growth at 10 µM [6] [%] | growth at 10 µM [7] [%] | growth at 10 µM [8] [%] | growth at 10 µM [9] [%] | growth at 10 µM [10] [%] | growth at 10 µM [11] [%] | growth at 10 µM [12] [%] | growth at 10 µM [13] [%] | growth at 10 µM [14] [%] | growth at 10 µM [16] [%] | growth at 10 µM [17] [%] | growth at 10 µM [18] [%] | growth at 10 µM [19] [%] | growth at 10 µM [20] [%] | growth at 10 µM [21] [%] | further results
CC(=O)Oc1c(C2=NN(C(C)=O)C(c3ccccc3[N+](=O)[O-])O2)sc2nnc(-c3ccccc3)c(-c3ccccc3)c12 (configuration not stated) | 90.1 | 76.8 | 64 | 102 | 97.5 | 88.6 | 76.3 | 98.4 | 100 | 98 | 98.5 | 97.1 | 49 | 107 | 120 | 105 | 80 | 89.8 | 93 | 95.1 | growth at 10 µM [15]: 76.3%; growth at 10 µM [22]: 108%; growth at 10 µM [23]: 91.8%; growth at 10 µM [24]: 57.4%; growth at 10 µM [25]: 103%; growth at 10 µM [26]: 82.8%; growth at 10 µM [27]: 97.9%; growth at 10 µM [28]: 19.6%; growth at 10 µM [29]: 86.5%; growth at 10 µM [30]: 58.9%; growth at 10 µM [31]: 104%; growth at 10 µM [32]: 93.5%
Oc1c(-c2nnc(-c3ccc(Cl)cc3)o2)sc2nnc(-c3ccccc3)c(-c3ccccc3)c12 | 46.1 | 19.3 | 33.5 | 61.1 | 53 | 43.9 | 62.8 | 15.5 | 27.4 | 24.5 | 53.7 | 71.8 | 35.1 | 59 | 54.7 | 28.1 | 38 | 56 | 67.2 | 84.8 | growth at 10 µM [22]: 67.4%; growth at 10 µM [23]: 55.3%; growth at 10 µM [33]: 58.5%; growth at 10 µM [24]: 40.4%; growth at 10 µM [25]: 51.2%; growth at 10 µM [26]: 35.6%; growth at 10 µM [27]: 58.6%; growth at 10 µM [28]: 27.6%; growth at 10 µM [29]: 44.6%; growth at 10 µM [30]: 52.5%; growth at 10 µM [31]: 71.9%; growth at 10 µM [32]: 72.3%
CC1=NN(C(=O)c2sc3nnc(-c4ccccc4)c(-c4ccccc4)c3c2O)C(=O)C1 | 87 | 89.8 | 85.1 | 65.9 | 82.2 | 60.7 | 90 | 16 | 52.2 | 31 | 80.2 | 83.5 | 68.6 | 103 | 59.7 | 97.6 | 77.4 | 104 | 91.9 | 117 | growth at 10 µM [15]: 93.8%; growth at 10 µM [22]: 111%; growth at 10 µM [23]: 87.4%; growth at 10 µM [33]: 74.3%; growth at 10 µM [24]: 59.3%; growth at 10 µM [25]: 84.5%; growth at 10 µM [26]: 79.4%; growth at 10 µM [27]: 83.7%; growth at 10 µM [28]: 49.5%; growth at 10 µM [29]: 80.5%; growth at 10 µM [30]: 69.4%; growth at 10 µM [31]: 97.8%; growth at 10 µM [32]: 95.6%
